Test results taken from patent US6545053B1, “Tricyclic compounds and drug compositions containing same” (Asahi Kasei Kogyo Kabushiki Kaisha, priority 1996, dated 2003).
Where a name gives a salt, the structure may show the parent alone. Read-outs that look alike come from different tables or passages of the source.

Legend:
human β3 = target: T1, human β3 (Homo sapiens, UniProt P13945); test: Human β3-agonist activity (cAMP in CHO cells transfected with human β3 gene); type: cell-based; conditions: for Emax: CHO, read-out: Intrinsic activity (%)
T1 construct: And then full length of human β3 gene was cloned using this fragment as a probe; expressed in transfected cells; host or cells: CHO cells (Chinese hamster ovary), pcDNA3 vector
T1 sequence (P13945 whole entry, the tested form may be a part): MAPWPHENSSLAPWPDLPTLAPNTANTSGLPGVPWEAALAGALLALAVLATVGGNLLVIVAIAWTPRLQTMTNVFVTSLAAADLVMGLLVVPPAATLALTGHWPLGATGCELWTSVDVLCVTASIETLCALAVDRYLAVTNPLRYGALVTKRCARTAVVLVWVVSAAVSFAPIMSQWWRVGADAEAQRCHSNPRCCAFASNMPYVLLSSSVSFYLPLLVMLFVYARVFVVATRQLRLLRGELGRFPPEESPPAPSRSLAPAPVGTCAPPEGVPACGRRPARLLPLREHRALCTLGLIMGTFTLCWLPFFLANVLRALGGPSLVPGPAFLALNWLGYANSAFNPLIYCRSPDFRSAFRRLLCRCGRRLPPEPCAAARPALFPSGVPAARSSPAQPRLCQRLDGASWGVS
Experimental: Human β3-agonist Activity
Human β3-agonist activity was examined using CHO cells (chinese hamster ovarian cells) to which pcDNA3 (in vitrogen) cells inserted human β3 gene was transfected. Human β3 fragment was obtained by PCR using human fat tissue cDNA (supplied from Clontech) with a β3 primer [Krief et al, J. Clin. Invest.
The cells were cultured in a HAM F-12 medium containing 10% of fetal bovine serum, 400 μg/ml of Geneticin (Gibco BRL). 100 U/ml penicillin and 100 μg/ml streptomycin. 5×10^5 cells were placed on a 6-well plate and cultured for 24 hours, after which the medium was changed to a HAM F-12 medium without serum and was kept for 2 hours. Each test compound was first dissolved in DMSO, and then diluted with a HAM F-12 medium containing 1 mM isobutylmethyl xanthine and 1 mM ascorbic acid. A 10-fold dilution in the range of 10^−5 to 10^−12 M was added into the cell.
After culturing for 30 minutes, culture medium was withdrawn, 0.5 ml of 1 N NaOH was added and was kept for 20 minutes. And then 0.5 ml of 1 N acetic acid was added with subsequent agitation and centrifugation. Finally the concentration of cAMP were analyzed using cAMP EIA KIT (Cayman). […] Isoprotelenol was purchased from Research Biochimicals International.

canine adipocytes = test: Lipolytic activity in canine fatty cell (glycerol release); type: cell-based, dogs; conditions: Canis lupus familiaris, Adipocyte; for EC50: 1 h, glycerol release, canine adipocytes, read-out: ED50 (the source's name); for Emax: read-out: Intrinsic activity (%)
Experimental: Lipolytic Activity in Canine Fatty Cell
Adipose tissues in the omentum were collected from dogs and minced and washed. Krebs-Ringer buffer solution containing 1 mg/ml Collagenase (Sigma) and 1% of bovine serum albumin was added in an amount of 3 ml per one gram of the tissue. These cells were then incubated at 37° C. for 30 minutes with shaking and then undigested tissues were removed with a nylon filter. The resulting adipocytes were washed four times with Krebs-Ringer buffer, and then the concentration of cells was diluted to 2×10^5/ml with Krebs-Ringer buffer solution containing 4% of bovine serum albumin. These cells were transferred to Eppendorf tubes each in an amount of 300 μl.
Each 300 μl of a culture medium containing the test compounds were added to these tubes and was held at 37° C. for 1 hour whith shaking. Stimulation was stoped by cooling with ice. After centrifugation, the adipocytes were taken off with an aspirator, whereupon the glycerol was determined using F-KIT GLTCEROL (Behringer-Manheim).

male ddy mice [1] = test: Lipolytic effect in mice (serum free fatty acid); type: in vivo
Experimental: Blood Sugar Decreasing Effect and Lipolytic Effect Male ddy mice (supplied from the firm Nippon Charles Liver) of 6 weeks age were subcutaneously administered with glucose in a dose of 2 g/kg. The animals were also treated with either one of test compounds via oral or intraperitoneal administration in a dose of 0.1 ml per 10 grams of body weight. After one hour, blood sample was taken from abdominal aorta, from which serum was separated and served as the sample. Lipolytic Effect Amount of free fatty acid in the samples was determined using NEFA HA TEST WAKO (of the firm Wako Pure Chemical). […] Therefore, it was shown that they are useful as medicament for preventive and therapeutic treatment of hyperlipemia and for therapeutic treatment of obesity.

male ddy mice [2] = test: Toxicity test in mice; type: in vivo; conditions: dose of 100 mg/kg; 8 mice
Experimental: The compounds of Examples 7 and 31 were administered to 6 week age male ddy mice (supplied from the firm Nippon Charles Liver) at a dose of 100 mg/kg.

male ddy mice [3] = test: Blood sugar decreasing effect in glucose-loaded mice; type: in vivo; conditions: glucose 2 g/kg s.c., after one hour
Experimental: Blood Sugar Decreasing Effect and Lipolytic Effect Male ddy mice (supplied from the firm Nippon Charles Liver) of 6 weeks age were subcutaneously administered with glucose in a dose of 2 g/kg. The animals were also treated with either one of test compounds via oral or intraperitoneal administration in a dose of 0.1 ml per 10 grams of body weight. After one hour, blood sample was taken from abdominal aorta, from which serum was separated and served as the sample. Blood Sugar Decreasing Effect The samples prepared as above were analyzed for the serum glucose concentration by Auto analyzer (SUPER Z of the firm M. C. Medical). For the analyzer kit, Glucose II HA TEST WAKO (of the firm Wako Pure Chemical) was used. % decrease in blood sugar=[(A−B)/(A−C)]×100 in which A represents the glucose concentration upon being loaded with glucose, B represents the glucose concentration after administration of the compound and C is the usual level of the glucose concentration. […] Therefore, it was proven that the compound according to the present invention is effective as a medicament for therapeutic and preventive treatment of diabetes.

[4] = cAMP, CHO cells with human β3, read-out: ED50 (the source's name)

Row | Structure (SMILES) | EC50 (human β3) [µM] | Emax (human β3) [%] | EC50 (canine adipocytes) [µM] | Emax (canine adipocytes) [%] | increase of free fatty acid (male ddy mice [1]; oral administration of 100 mg/kg) [%] | fatal cases (male ddy mice [2]) | % decrease in blood sugar (male ddy mice [3]; intraperitoneal administration) [%] | increase of free fatty acid (male ddy mice [1]; intraperitoneal administration of 10 mg/kg) [%] | EC50 (human β3; [4]) [µM] | % decrease in blood sugar (male ddy mice [3]; oral administration) [%] | increase of free fatty acid (male ddy mice [1]; oral administration of 30 mg/kg) [%]
1 | CS(=O)(=O)Nc1cccc(C(O)CNCCOc2ccc3c(c2)[nH]c2ccccc23)c1.Cl (racemic) [Example 7, (±)-N-[3-[2-[2-(9H-Carbazol-2-yloxy)ethylamino]-1-hydroxyethyl]phenyl]methanesulfonamide Hydrochloride] | 0.018 | 95 | 1.2 | 90 | 47.7 | no fatal case | – | – | – | – | –
2 | CS(=O)(=O)Nc1cc(C(O)CNCCOc2ccc3c(c2)[nH]c2ccccc23)ccc1O.Cl (racemic) [Example 2, (±)-N-[5-[2-[2-(9H-Carbazol-2-yloxy)ethylamino]-1-hydroxyethyl]-2-hydroxyphenyl]methanesulfonamide Hydrochloride] | 0.00018 | 120 | 0.056 | 82 | – | – | 77.1 | 67.2 | – | – | –
3 | OC(CNCCOc1ccc2c(c1)[nH]c1ccccc12)c1ccccc1 (racemic) [Example 31, (±)-2-N-[2-(9H-Carbazol-2-yloxy)ethyl]amino]-1-phenyethanol Hydrochloride] | – | 100 | 7.7 | 103 | – | no fatal case | – | – | 2.2 | 34.5 | 32.4
4 | CS(=O)(=O)Nc1cc(C(O)CNCCOc2ccc3c(c2)oc2ccccc23)ccc1O (racemic) [Example 4, (±)-N-[5-[2-[2-(Dibenzofuran-3-yloxy)ethylamino]-1-hydroxyethyl]-2-hydroxyphenyl]methanesulfonamide Hydrochloride] | 0.00052 | 80 | 0.0007 | 88 | – | – | – | – | – | – | –
5 | CC(=O)Nc1ccc2c(c1)Cc1cc(OCCNC[C@H](O)c3cccc(NS(C)(=O)=O)c3)ccc1-2 [Example 71, (R)-N-13-[2-[2-(9H-7-Acetylaminofluoren-2-yloxy)ethylamino]-1-hydroxyethyl]phenyl]methanesulfonamide Hydrochloride] | – | 97 | 0.11 | 88 | – | – | – | – | 0.18 | – | –
6 | CC(=O)Nc1ccc2c(c1)Cc1cc(OCCNCC(O)c3ccc(O)c(NS(C)(=O)=O)c3)ccc1-2 (racemic) [Example 50, (±)-N-[5-[2-[2-(9H-7-Acetylaminofluoren-2-yloxy)ethylamino]-1-hydroxyethyl]-2-hydroxyphenyl]methanesulfonamide Hydrochloride] | – | 85 | 0.00019 | 112 | – | – | – | – | 0.00094 | – | –
7 | CN(C)S(=O)(=O)Nc1cc(C(O)CNCCOc2ccc3c(c2)oc2ccccc23)ccc1O (racemic) [Example 43, (±)-N′-[5-[2-[2-(Dibenzofuran-3-yloxy)ethylamino]-1-hydroxyethyl]-2-hydroxyphenyl]-N,N-dimethylsulfamide Hydrochloride] | 0.085 | 104 | 0.004 | 77 | – | – | – | – | – | – | –
8 | CS(=O)(=O)Nc1cc([C@@H](O)CNCCOc2ccc3c(c2)sc2ccccc23)ccc1O [Example 72, (R)-N-[5-[2-[2-(Dibenzothiophen-3-yloxy)ethylamino]-1-hydroxyethyl]-2-hydroxyphenyl]methanesulfonamide Hydrochloride] | – | 80 | 0.00054 | 96 | – | – | – | – | – | – | –
9 | CN(C)S(=O)(=O)Nc1cc(C(O)CNCCOc2ccc3c(c2)[nH]c2ccccc23)ccc1O (racemic) [Example 25, (±)-N′-[5-[2-[2-(9H-Carbazol-2-yloxy)ethylamino]-1-hydroxyethyl]-2-hydroxyphenyl]-N,N-dimethylsulfamide Hydrochloride] | 0.0021 | 95 | 0.51 | 70 | – | – | – | – | – | – | –
10 | CC(C)S(=O)(=O)Nc1cc(C(O)CNCCOc2ccc3c(c2)[nH]c2ccccc23)ccc1O (racemic) [Example 54, (±)-N-[5-[2-[2-(9H-Carbazol-2-yloxy)ethylamino]-1-hydroxyethyl]-2-hydroxyphenyl]-2-propanesulfonamide Hydrochloride] | 0.0084 | 109 | 0.025 | 118 | – | – | – | – | – | – | –
11 | CS(=O)(=O)Nc1cccc(C(O)CNCCOc2ccc3c(c2)sc2ccccc23)c1 (racemic) [Example 41, (±)-N-[3-[2-[2-(Dibenzothiophen-3-yloxy)ethlamino]-1-hydroxyethyl]phenyl]methanesulfonamide Hydrochloride] | – | 63 | 0.24 | 109 | – | – | – | – | 0.6 | – | –
12 | COC(CNCCOc1ccc2c(c1)[nH]c1ccccc12)c1ccc(N)c(NS(C)(=O)=O)c1 (racemic) [Example 92, (±)-N-[5-[2-[2-(9H-Carbazol-2-yloxy)ethylamino]-1-methoxyethyl]-2-aminophenyl]methanesulfonamide Hydrochloride] | 0.28 | 81 | 1.9 | 126 | – | – | – | – | – | – | –
